# Results from the METLIN SMRT retention time set (Domingo-Almenara et al. 2019).
# Experiment: gradient 5% acetonitrile 3 min, to 50% in 2 min, to 85% in 15 min, held 3 min, 100 µL/min
# Conditions: column: Zorbax Extend-C18 2.1 x 50 mm; eluents: water / acetonitrile, 0.1% formic acid
# Method in brief: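 Each retention time is based on an adduct peak selected computationally and verified by manual inspection. Measurements used HPLC–quadrupole time-of-flight mass spectrometry in positive and negative ionization mode on mixtures of ~100 pure standards. Chromatography ran on a Zorbax Extend-C18 column (2.1 × 50 mm, 1.8 μm) at 100 μL/min with water and acetonitrile, each containing 0.1% formic acid, and dead and dwell volumes of 40 μL and 900 μL.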
row,Compound,RP-LC retention time
1,CCN1C(=O)COc2ccc(-c3csc(NC(=O)c4cccc(C)c4)n3)cc21,1050 s
2,CN(C)c1cccc(-c2nc(-c3ccc(CNC(=O)C4CC4)s3)no2)c1,680 s
3,COc1ccc(C2C(=O)N(CCc3ccccc3)CC(=O)N2Cc2ccc3c(c2)OCO3)cc1 (configuration not stated),933 s
4,CCN(C(=O)C1CCC(C)CC1)c1nc(-c2ccc(C)cc2)cs1 (configuration not stated),767 s
5,COc1ccc(CC(=O)Nc2ccc(-c3cn4ccsc4n3)cc2)cc1OC,604 s
6,CC(=O)Nc1ccc(NC(=O)Cn2ccn3nc(-c4ccc(F)cc4)c(CO)c3c2=O)cc1,670 s
7,CCn1cc(-c2ccncc2)cc1C(=O)NCc1ccc(N(C)C)cc1,559 s
8,O=C(Cn1c(=O)c2cccn2c2ccc(F)cc21)NCCCN1CCc2ccccc2C1,664 s
9,O=C(Cn1c(C2CC(=O)N(C3CCCCC3)C2)nc2ccccc21)N1CCOCC1 (configuration not stated),630 s
10,CCC(CO)NCc1ccc(-c2cccc(Cl)c2)o1 (configuration not stated),658 s
11,Cc1ccc(C)c(S(=O)(=O)N2CCC3(CC2)NCCN=C3NCc2ccc(F)cc2)c1,772 s
12,CCOC(=O)c1nc(N2CCN(c3ccccn3)CC2)c2c(C)noc2n1,596 s
13,O=C(NCCCN1CCOCC1)c1ccc(OCc2nnc(C(=O)Nc3ccccc3F)s2)cc1,658 s
14,CCOC(=O)c1noc2ncnc(NCCCN3CCN(c4ccc(F)cc4)CC3)c12,599 s
15,CCCn1c(CCNC(=O)c2ccc(C)cc2)nc2cccnc21,668 s
16,CC1Oc2ccc(-c3csc(NC(=O)c4cccnc4)n3)cc2NC1=O (configuration not stated),704 s
17,O=C(Cn1nc2c(cc1=O)CCCC2)Nc1nc(-c2ccccn2)cs1,609 s
18,O=S(=O)(c1ccc2c(c1)OCCO2)N(CCc1cccs1)Cc1cccnc1,655 s
19,C/C(=C\c1csc(C)n1)C1C[C@@H]2O[C@]2(C)CCC[C@H](C)[C@H](O)[C@@H](C)C(=O)C(C)(C)[C@@H](O)CC(=O)O1 (some centres not stated),901 s
20,Cc1ccc(N2CCC(NC(=O)c3ccc(C)s3)C2=O)cc1 (configuration not stated),842 s
21,CNc1nnc(-c2nnc(C)o2)c2ccccc12,567 s
22,CCCCNC(=O)c1nnn2c1COC(c1ccc(F)cc1)C2 (configuration not stated),929 s

row,Compound,RP-LC retention time
1,CCc1nnc(-c2nnc(NC3CCCCCC3)c3ccccc23)o1,821 s
2,CCn1c(=O)c2cc(C(=O)NCCc3ccc(OC)c(OC)c3)nn2c2ccccc21,910 s
3,Cc1ccc(N2CCN(C(=O)c3sc4ncccc4c3-n3cccc3)CC2)c(C)c1,1260 s
4,CC1(C)CC(=O)N(CC(=O)Nc2c(F)c(F)c(F)c(F)c2F)c2ccccc2S1(=O)=O,860 s
5,CCC(=O)N1CCc2cc(N3CC(C(=O)NCc4cc(F)cc(F)c4)CC3=O)ccc21 (configuration not stated),734 s
6,CC1(C)C(=O)N(CC(=O)Nc2ccc(F)cc2F)c2ccccc21,871 s
7,Cc1ccc(-c2ccc(=O)n(CCc3nc(-c4ccc5c(c4)OCO5)no3)n2)cc1,711 s
8,COc1ccc(NC(=O)C2CCN(c3cncnc3N(C)C)CC2)cc1OC,592 s
9,Cc1nn(C)c2nc(OC(C)C(=O)NCc3ccc(Cl)cc3)cc(C(F)(F)F)c12 (configuration not stated),1020 s
10,COc1cccc(CNC(=O)Cn2c(=O)cc(-c3nc(C)no3)c3ccccc32)c1,806 s
11,CCCCOc1ccc(C(=O)Nc2cc(C)no2)cc1,908 s
12,CN(C)c1ccc(CNC(=O)C2CCN(c3cnc4nccnc4c3)CC2)cc1,562 s
13,O=C(NC1CCCN(c2cc(-c3ccc(Cl)cc3)[nH]n2)C1)c1ccc2[nH]ccc2c1 (configuration not stated),825 s
14,COc1ccc(CCC(=O)NCC2CCN(C(=O)NC(C)(C)C)CC2)cc1,687 s
15,CC1(C)CC(NC(=O)COc2ccc(Cl)cc2)CC(C)(C)N1,623 s
16,COc1ccc(-c2nc(-c3cn(Cc4ccc(C)cc4)nn3)no2)cc1OC,961 s
17,Cc1cc(C)cc(C(=O)N2CCCC(C(=O)NC3CCCCCCC3)C2)c1 (configuration not stated),1040 s
18,CCOc1ccc(C(=O)NC(C)C(=O)Nc2nc3ccccc3[nH]2)cc1 (configuration not stated),640 s
19,CCOC(=O)c1ccc(NC(=O)C2CCN(S(=O)(=O)c3cn(CC)cn3)CC2)cc1,774 s
20,CCCOc1nc2ccccc2nc1N1CCCC(C(=O)Nc2ccc(F)c(Cl)c2)C1 (configuration not stated),1130 s
21,CCN1CCN(c2cc(C(=O)O)c3cc(NS(=O)(=O)c4cc(F)ccc4F)ccc3n2)CC1,594 s
22,CS(=O)(=O)CCC(C(=O)N1CCN(c2ccccn2)CC1)N1Cc2ccccc2C1=O (configuration not stated),917 s

row,Compound,RP-LC retention time
1,COc1ccc2c(c1)C1(CCN(S(=O)(=O)c3ccc4c(c3)oc(=O)n4C)C1)C(=O)N2C (configuration not stated),818 s
2,Cc1ccsc1CN1CCC(n2c(C)cnc2-c2ccncc2)C1 (configuration not stated),506 s
3,CCn1nnc2ccc(-c3noc(-c4cccc(NC(C)=O)c4)n3)cc21,819 s
4,CCOc1ccc(N2C(=O)N(c3ccc(Cl)c(Cl)c3)C3CS(=O)(=O)CC32)cc1 (configuration not stated),915 s
5,Cc1ccc(CCNC(=O)c2cc3n(n2)CC(C)(C(=O)NCc2ccc(F)cc2)N(C)C3=O)cc1 (configuration not stated),828 s
6,COc1ccc(NC(=O)c2cc3c(=O)n(CC(C)C)c4ccccc4n3n2)cc1F,1070 s
7,CCOC(=O)c1nc(Nc2cccc(C)c2)c2ccccc2n1,890 s
8,NC(=O)C1CCN(C(=O)c2ccc(CN3C(=O)CCn4nc(-c5cccc(Cl)c5)cc43)cc2)CC1,700 s
9,CC1(C)CCCC2(C)C3=C(CCC12)C(=O)OC3 (configuration not stated),1270 s
10,COC(=O)c1ccc(CN2N=C(C(=O)N3CCC(C)CC3)S(=O)(=O)c3ccccc32)o1,891 s
11,Cc1ccc(S(=O)(=O)N2C[C@@H]3C[C@H]2C[C@@H]3NC(=O)c2ccccc2)cc1Cl,946 s
12,Cc1nc(-c2ccc(OC3CCN(C(=O)c4nn(C)c5ccccc45)C3)cc2)no1 (configuration not stated),942 s
13,O=c1c2cc(-c3ccc(F)cc3)nn2ccn1Cc1noc(CN2CCCC2)n1,638 s
14,Cc1nc(-c2noc(-c3ccncc3)n2)cn1CC(=O)N1CCN(c2ccccc2)CC1,673 s
15,CC(C)c1nc2ccc(CCC(=O)NC(C)c3ccccc3)cc2[nH]1 (configuration not stated),610 s
16,Cc1ccc(NC(=O)c2cnc3c(c2)c(=O)n(C)c(=O)n3-c2ccc(F)cc2)cc1,936 s
17,O=C(Nc1nnc(-c2cccs2)o1)c1cccc(N2C(=O)CCC2=O)c1,617 s
18,CCn1cc(-c2nc(C(=O)Nc3cccc(C(=O)OC)c3)cs2)c2cccnc21,1060 s
19,CCCCN(C)C(=O)Cn1c(CNC(=O)c2ccco2)nc2ccccc21,629 s
20,Cc1cccc(N2CCN(S(=O)(=O)c3cc4c(s3)CCN(C(=O)C3CC3)C4)CC2)c1,1040 s
21,CCOCCOC1CCN(S(=O)(=O)c2cccc(OC)c2)CC1,881 s
22,CCc1ccc(NC(=O)C2CCN(c3cncnc3N3CCOCC3)CC2)cc1,675 s

row,Compound,RP-LC retention time
1,COc1ccc(S(=O)(=O)N2CCCN(c3ccc(=O)n(-c4ccccc4)n3)CC2)cc1,822 s
2,Cc1ccc(C(=O)NCc2nc(-c3ccc4c(c3)oc(=O)n4C(C)C)no2)cc1,871 s
3,COc1ccc(-c2noc(C3CCCN3C(=O)Nc3cc(C)ccc3OC)n2)cc1 (configuration not stated),859 s
4,CCOC(=O)c1c(C)[nH]c(C(=O)N2CCC(CC(=O)NCc3ccccc3C)CC2)c1C,802 s
5,CCN1CCCn2cc(S(=O)(=O)N3CCOCC3)cc2C1=O,614 s
6,Cc1ccc(-n2nc3c(N4CCCC(C(=O)NCCC5=CCCCC5)C4)nnc(C)c3c2C)cc1 (configuration not stated),865 s
7,Cc1cc(C(=O)NCCCC(=O)Nc2cccc3cccnc23)c(C)o1,728 s
8,Cc1ccc(C)c(S(=O)(=O)Nc2ccc(C(=O)Nc3ccccc3F)cc2)c1,863 s
9,Cc1ccc(S(=O)(=O)N2CCC(c3cc(N)on3)CC2)cc1,789 s
10,Cc1cc(NC(=O)c2cnc(-c3ccccc3)nc2-c2ccncc2)ccc1Br,994 s
11,O=S(=O)(Nc1ccc(Cn2cncn2)cc1)c1ccc2c(c1)CCC2,759 s
12,O=C(Cc1cccs1)N1CCC(c2nnc(C(F)(F)F)o2)CC1,752 s
13,Cc1ccc(CNC(=O)c2ccc3ccnc(N4CCN(c5ccccc5)CC4)c3c2)o1,819 s
14,Cc1ccccc1Cn1c(CN2CCC(C(=O)NCCCN3CCCC3)CC2)cc2ccccc21,646 s
15,CN(C)S(=O)(=O)c1ccc2c(c1)N(CC(=O)NCCc1ccco1)C(=O)C1CCCCN21 (configuration not stated),842 s
16,COc1ccc(N2C(=O)C3N=NN(Cc4nc(-c5cccc(C)c5)no4)C3C2=O)cc1 (configuration not stated),993 s
17,CCOC(=O)Cn1nc2ccc(S(=O)(=O)N3CCC(C)CC3)cn2c1=O,877 s
18,CC(=O)N(C1CCOCC1)C1CCN(C(=O)Nc2cc(F)c(F)c(F)c2)CC1,747 s
19,CC(C)c1nnc(-c2cccnc2N2CCN(C(=O)c3ccc4cc[nH]c4c3)CC2)o1,777 s
20,Cc1ccc(CNC(=O)c2cn3c(n2)COCC3)cc1C,704 s
21,CN(C)c1ccc(N2C=C(C(=O)N3CCCCC3)S(=O)(=O)c3ccccc32)cc1,898 s
